Experimental data: the supplement of paper PMC10307832

Experiments:
Experiment in all cases: relative viability (nuclei count vs DMSO), 5 days (fraction); higher = more cells survive
FG-4592 + Navitoclax = compound: Cc1nc(C(=O)NCC(=O)O)c(O)c2ccc(Oc3ccccc3)cc12 [FG-4592] + CC1(C)CCC(c2ccc(Cl)cc2)=C(CN2CCN(c3ccc(C(=O)NS(=O)(=O)c4ccc(N[C@H](CCN5CCOCC5)CSc5ccccc5)c(S(=O)(=O)C(F)(F)F)c4)cc3)CC2)C1 [Navitoclax] (partner 0.5 µM)
In short: (§1)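 Cells from lung cancer lines were seeded into 1536-well plates and, one day later, dosed by pin tool. Treatments were either a single drug or a fixed dose of an anchor drug with five library-drug doses (not always all listed) in √10 steps. After 5 days, nuclei were stained in a one-step fixation (final 0.05% Triton X-100, 1% formaldehyde, 1 ug/ml Hoechst) and counted on 4× images, and relative viability is the treated-to-vehicle nuclei ratio, as the median of duplicate plates.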

IU1-47 + Crizotinib = compound: CC1=CC(=C(N1C2=CC=C(C=C2)Cl)C)C(=O)CN3CCCCC3 [IU1-47] + C[C@@H](Oc1cc(-c2cnn(C3CCNCC3)c2)cnc1N)c1c(Cl)ccc(F)c1Cl [Crizotinib] (partner 1 µM)
In short: as §1

FG-4592 + Luminespib = compound: Cc1nc(C(=O)NCC(=O)O)c(O)c2ccc(Oc3ccccc3)cc12 [FG-4592] + CCNC(=O)c1noc(-c2cc(C(C)C)c(O)cc2O)c1-c1ccc(CN2CCOCC2)cc1 [Luminespib] (partner 0.01 µM)
In short: as §1

FG-4592 + Dasatinib = compound: Cc1nc(C(=O)NCC(=O)O)c(O)c2ccc(Oc3ccccc3)cc12 [FG-4592] + Cc1nc(Nc2ncc(C(=O)Nc3c(C)cccc3Cl)s2)cc(N2CCN(CCO)CC2)n1 [Dasatinib] (partner 0.075 µM)
In short: as §1

Cell Line	relative viability (FG-4592 + Navitoclax; first compound 0.08 µM)	relative viability (FG-4592 + Navitoclax; first compound 0.253 µM)	relative viability (FG-4592 + Navitoclax; first compound 0.8 µM)	relative viability (FG-4592 + Navitoclax; first compound 2.53 µM)	relative viability (FG-4592 + Navitoclax; first compound 8 µM)	relative viability (IU1-47 + Crizotinib; first compound 0.08 µM)	relative viability (IU1-47 + Crizotinib; first compound 0.253 µM)	relative viability (IU1-47 + Crizotinib; first compound 0.8 µM)	relative viability (IU1-47 + Crizotinib; first compound 2.53 µM)	relative viability (IU1-47 + Crizotinib; first compound 8 µM)	relative viability (FG-4592 + Luminespib; first compound 0.08 µM)	relative viability (FG-4592 + Luminespib; first compound 0.253 µM)	relative viability (FG-4592 + Luminespib; first compound 0.8 µM)	relative viability (FG-4592 + Luminespib; first compound 2.53 µM)	relative viability (FG-4592 + Luminespib; first compound 8 µM)	relative viability (FG-4592 + Dasatinib; first compound 0.08 µM)	relative viability (FG-4592 + Dasatinib; first compound 0.253 µM)	relative viability (FG-4592 + Dasatinib; first compound 0.8 µM)	relative viability (FG-4592 + Dasatinib; first compound 2.53 µM)	relative viability (FG-4592 + Dasatinib; first compound 8 µM)
LU99A	0.869	0.709	0.75	0.832	0.718	0.503	0.538	0.538	0.739	0.617	0.287	0.254	0.294	0.234	0.279	0.535	0.371	0.402	0.561	0.58
LXF-289	0.956	0.914	1.02	0.936	0.953	0.854	0.858	0.82	0.796	0.817	0.65	0.675	0.712	0.596	0.711	0.22	0.186	0.19	0.168	0.189
NCI-H23	0.832	0.786	0.809	0.744	0.708	0.533	0.528	0.506	0.638	0.48	0.208	0.247	0.179	0.203	0.184	0.841	0.669	0.706	0.694	0.862
NCI-H322M	1.3	1.21	1.08	1	1.19	1.02	0.923	0.888	1.07	0.954	0.82	0.841	0.666	0.818	0.623	0.248	0.249	0.219	0.245	0.224
NCI-H441	0.606	1.01	0.573	0.964	0.588	0.778	0.887	0.813	0.889	0.775	0.314	0.307	0.307	0.443	0.287	0.56	0.547	0.524	0.55	0.555
NCI-H460	1.15	1.08	1.25	0.963	0.979	0.955	1.1	1.05	0.861	1.46	0.0351	0.0212	0.0354	0.0343	0.0187	0.527	0.511	0.43	0.457	0.368
NCI-H520	1.03	1.05	1.05	1.07	0.879	0.815	0.984	0.627	0.8	0.499	0.22	0.209	–	0.204	0.201	0.171	0.206	0.133	0.157	0.157
NCI-H596	0.897	0.914	–	0.991	0.817	1.01	1.07	1.04	0.95	0.943	1.14	1.08	0.886	1.15	0.676	0.573	0.736	0.418	0.537	0.562
NCI-H647	1.16	1.04	1.04	0.961	1.12	1.01	1.22	0.99	1.07	0.561	0.183	0.181	0.174	0.201	0.109	0.186	0.202	0.145	0.172	0.183
NCI-H727	0.537	0.403	0.413	0.63	0.525	0.929	–	0.857	0.798	0.658	0.341	0.237	0.335	1.02	0.326	0.375	0.473	0.326	0.49	0.41
NCI-H838	1.27	1.09	1.09	1.2	1.11	0.858	0.895	0.844	1.03	0.669	0.324	0.179	0.263	0.386	0.272	0.271	0.262	0.226	0.27	0.207
NCI-H1355	1.08	0.94	–	0.901	0.862	1.17	1.09	1.14	1	1.14	0.808	0.67	0.465	0.681	0.676	0.763	0.638	0.476	0.553	0.554
NCI-H1437	1.07	1.09	1.16	1.01	0.852	0.909	0.952	0.81	0.926	0.795	1.21	1.11	1.27	0.984	0.95	0.409	0.309	0.335	0.392	0.345
NCI-H1650	1.23	1.12	1.37	1.17	1.24	0.978	0.969	0.802	1.16	0.857	0.206	0.208	0.219	0.197	0.209	0.304	0.361	0.281	0.295	0.342
NCI-H1651	1.13	0.946	1.08	1.18	0.833	0.887	0.873	0.889	0.804	0.863	0.9	0.767	0.789	0.836	0.867	0.416	0.439	0.356	0.325	0.367
NCI-H1666	1.01	0.674	1.07	0.905	0.879	0.948	0.914	0.927	0.991	1.08	0.966	0.965	0.96	1	0.95	0.812	0.792	0.801	0.794	0.808
